Assay results as given in PubChem BioAssay (NCI).
Several values for one entry are separate records, joined by “and”; a condition that tells them apart may be missing. Identical values can stand only once.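 Grown in 96-well plates, cells were treated for 48 hours with each compound at five concentrations. Insufficient inhibition: endpoint recorded as highest concentration tested. Abbreviation: GI50, concentration required for 50% inhibition of growth. TGI marks complete inhibition of growth.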

Tests used:
Assay in all cases: DTP human tumour cell line panel, 48 h
BT-549 breast = tested on: BT-549 breast
MDA-MB-231 breast = tested on: MDA-MB-231 breast
NCI/ADR-RES ovarian = tested on: NCI/ADR-RES ovarian
DU-145 prostate = tested on: DU-145 prostate
KM20L2 colon = tested on: KM20L2 colon
SNB-78 CNS = tested on: SNB-78 CNS
M19-MEL melanoma = tested on: M19-MEL melanoma
DLD-1 colon = tested on: DLD-1 colon
DMS 273 small cell lung = tested on: DMS 273 small cell lung

Compound | GI50 (BT-549 breast) | TGI (BT-549 breast) | GI50 (MDA-MB-231 breast) | TGI (MDA-MB-231 breast) | GI50 (NCI/ADR-RES ovarian) | TGI (NCI/ADR-RES ovarian) | GI50 (DU-145 prostate) | TGI (DU-145 prostate) | TGI (KM20L2 colon) [µM] | TGI (SNB-78 CNS) [µM] | TGI (M19-MEL melanoma) [µM] | TGI (DLD-1 colon) [µM] | TGI (DMS 273 small cell lung) [µM]
CC1/C(=N/Nc2ccc([N+](=O)[O-])cc2)CC2C3(C)CCC2(C(C)C(=O)O)C(=O)C13 (centres undefined) | 12.3 µM | > 100 µM | 4.06 µM | > 100 µM | 5.7 µM | > 100 µM | > 100 µM | > 100 µM |  |  |  |  | 
CC(C)CCc1c(Cl)nc(Cl)nc1Cl |  | 12.3 µM |  |  |  | > 100 µM |  | 31.1 µM |  |  |  |  | 
OC(CNC1CCCC1)Cn1c2ccccc2c2ccccc21 (centres undefined) | 25.1 µM | > 100 µM | 27.7 µM | > 100 µM | 40.6 µM | > 100 µM | 82.3 µM | > 100 µM |  |  |  |  | 
CCCCCN(CCCCC)CC(O)c1cc2c(c3ccccc13)CCCC2 (centres undefined) | 12.4 µM and 13.8 µM | 25.5 µM and 29.8 µM | 3.01 µM and 7.04 µM | 10.5 µM and 21.4 µM | 6.44 µM and 12.3 µM | 20.1 µM and 27.5 µM | 10.1 µM and 21.4 µM | 21.7 µM and 48.1 µM |  |  |  |  | 
CS/C(c1ccccc1)=[N+](/C)[O-] |  |  |  |  |  |  |  |  | > 100 | > 100 | > 100 | > 100 | 
COC(=O)[C@@]1(O)C[C@H]2O[C@]1(C)n1c3ccccc3c3c4c(c5c6ccccc6n2c5c31)C(=O)NC4 | 0.295 µM | 1.91 µM | 0.429 µM | 2.88 µM | 0.415 µM | 3.56 µM | 0.161 µM | 5.9 µM |  |  |  |  | 
N#CC1=C(N)Oc2c(sc3c(F)cccc23)C1c1ccc(F)cc1 (centres undefined) | 0.604 µM | 14.2 µM | 1.44 µM | 11.5 µM | 0.375 µM | 4.36 µM | 1.79 µM | 12.9 µM |  |  |  |  | 
COCCNC(=O)c1ccc(-c2nc3ccc4[nH]ncc4c3c3c2CCCC3)cc1 | 1.22 µM | 9.34 µM | 2.15 µM | 73 µM | 4.29 µM | > 100 µM | 2.12 µM | > 100 µM |  |  |  |  | 
[C-]#[N+]C(C)(C)C[C@H]1CC(C)C2CCC(C)C3([N+]#[C-])CCC(=C)C1[C@H]23 (some centres undefined) |  |  |  |  |  |  |  |  | 11.6 | 12 | 9.43 | 9.29 | 2.55
C[C@@H]1C[C@@]2(O[C@@H]2C)C(=O)O[C@@H]2CCN3CC=C(COC(=O)[C@]1(C)O)[C@H]23 |  | > 100 µM |  | > 100 µM |  | > 100 µM |  | > 100 µM |  |  |  |  | 
CSC1C(=O)c2ccccc2/C(=N/Nc2nc3ccccc3s2)C1C (centres undefined) | 8.52 µM | 19.6 µM | 7.79 µM | 15.8 µM | 9.94 µM | 25.5 µM | 9.59 µM | 18.3 µM |  |  |  |  | 
O=C1C(=O)c2ccccc2C(O)=C1CCCCCCCCC1CCCCC1 |  | 27.5 µM |  | 17.3 µM |  | 25.3 µM |  | 33.4 µM |  |  |  |  | 
Clc1ccc2c(c1)-c1ccccc1C1=NCCN12 | 2.41 µM | 9.89 µM | 2.69 µM | 12.4 µM | 1.6 µM | 4.8 µM | 2.02 µM | 4.62 µM |  |  |  |  | 
